In patent publication US12441717B2, “Crystal form of polycyclic anaplastic lymphoma kinase inhibitor” (SHANDONG XUANZHU PHARMA CO., LTD., priority 2020, dated 2025):
“And” between values parts separate entries of the source, which are not always exact repeats. Equal values may be shown once.

Key:
Type in all cases: physicochemical
[1] = Stability study (high temperature, high humidity, light): properties, related substances, moisture, XRD; settings: for Stability under high temperature, high humidity and light conditions (conclusion): overall conclusion of the stability study
Protocol: 2.1 Study Conditions for Crystal Form B of the Compound of Formula (1): • Placed at 105° C. for 5 days, left open, and sampled and tested on days 1 and 5; • placed at 60° C. for 10 days, left open, and sampled and tested on days 5 and 10; • placed under 25° C. RH 92.5% conditions for 10 days, left open, and sampled and tested on days 5 and 10; • under light conditions, using open and closed conditions (polyethylene bag+composite film bag), and sampling and testing when illumination requirements were met; and • placed under 40° C. RH 75% conditions for 1 month, left open, and sampled and tested on day 10 and after 1 month.
2.2 Study Conditions for Crystal Form a of the Compound of Formula (1): • Placed at 105° C. for 5 days, left open, and sampled and tested on days 1 and 5; • placed at 60° C. for 10 days, left open, and sampled and tested on days 5 and 10; • placed under 25° C. RH 92.5% conditions for 10 days, left open, and sampled and tested on days 5 and 10; • under light conditions, left open, and sampled and tested when illumination requirements were met; and • placed under 40° C. RH 75% conditions for 10 days, left open, and sampled and tested on days 5 and 10.
2.3 Study Conditions for the Amorphous Form of the Compound of Formula (1): • Placed at 60° C. for 10 days, left open, and sampled and tested on day 10; placed under 25° C. RH 92.5% conditions for 10 days, left open, and sampled and tested on day 10; and • under light conditions, using open and closed conditions (polyethylene bag+composite film bag), and sampling and testing when illumination requirements were met.
Illumination requirements: ICH Q1B Stability Test: Photostability Testing of New Drug Substances and formulation.
Determination of related substances: Determination by high performance liquid chromatography in accordance with “Chinese Pharmacopoeia”, 2015 edition, Vol. four, General Principle 0512.
Moisture determination: Determination according to “Chinese Pharmacopoeia”, 2015 edition, vol. four, General Principle 0832, Moisture Determination Method, First Method (Fischer's method), 2 Coulometric Titration Method.
XRD determination: Determination according to “Chinese Pharmacopoeia”, 2015 edition, vol. four, General Principle 0451 X-ray Diffraction Method—Second Method, Powder X-ray Diffraction Method.

[2] = Fluidity after universal pulverization (angle of repose, Carr's index, electrostatic phenomenon); settings: for Angle of repose / Carr's index % / ρbulk / ρtapped: after universal pulverization
Protocol: The amorphous form and crystal forms A and B of the compound of formula (1) were treated by universal pulverization.
The fluidity of the crystal form could be characterized by the angle of repose and the Carr's index. It was generally believed that the smaller the angle of repose and the Carr's index, the better the fluidity.

[3] = Solubility in buffered salt solutions of different pH (HPLC external standard); settings: for solubility at 24 h: buffered salt solution, 25 °C, thermodynamic from solid
Description: The solubility (mg/mL) of crystal forms A and B and the amorphous form of the compound of formula (1) under different pH conditions were as shown in Table 1.

[4] = Moisture absorbability test (Chinese Pharmacopoeia 2015, General Principle 9103); settings: for Moisture absorbability results: wrapped cells end with 'absorbability'
Description: A Test sample was taken and determined according to Chinese Pharmacopoeia, 2015 edition, vol. four, General Principle 9103, Guiding Principles for Drug Moisture Absorbability Test.

[5] = Day 0, coulometric Fischer titration
[6] = Day 0, related substances by HPLC
[7] = Day 10, at 25° C. RH 92.5%, open
[8] = Light - closed (polyethylene bag+composite film bag), ICH Q1B illumination
[9] = Light - closed, ICH Q1B illumination
[10] = Light - open, ICH Q1B illumination
[11] = Light - open, pattern compared with day 0
[12] = buffered salt solution pH 1.0, shaken at 25° C. for 24 h
[13] = buffered salt solution pH 4.5, shaken at 25° C. for 24 h
[14] = buffered salt solution pH 6.8, shaken at 25° C. for 24 h
[15] = buffered salt solution pH 7.4, shaken at 25° C. for 24 h
[16] = Day 5, at 25° C. RH 92.5%, open

## Cc1cc(Nc2ncc(Cl)c(Nc3ccccc3S(=O)(=O)C(C)C)n2)c2c(c1C1CCNCC1)OCCO2 [Amorphous form, 5-chloro-N^4-(2-(isopropylsulfonyl)phenyl)-N^2-(7-methyl-8-(piperidin-4-yl)-2,3-dihydrobenzo[b][1,4]dioxin-5-yl)pyrimidine-2,4-diamine]
[1]; Day 0
  Properties: Off-white powder
[1]; [5]
  Moisture %: 0.92%
[1]; [6]
  Overall related %: 0.84%
[1]; [7]
  Moisture %: 6.9%
  Overall related %: 0.90%
  Properties: Off-white powder
[1]; Day 10, at 25° C. RH 92.5%, open, pattern compared with day 0 (wrapped cell reads 'same as day 0')
  XRD: Same as day 0
[1]; Day 10, at 60° C., open
  Moisture %: 0.69%
  Overall related %: 1.78%
  Properties: Light yellow powder
[1]; Day 10, at 60° C., open, pattern compared with day 0 (wrapped cell reads 'same as day 0')
  XRD: Same as day 0
[1]; [8]
  Properties: Off-white powder
[1]; [9]
  Moisture %: 0.62%
  Overall related %: 0.88%
[1]; Light - closed, pattern compared with day 0 (wrapped cell reads 'same as day 0')
  XRD: Same as day 0
[1]; [10]
  Moisture %: 2.3%
  Overall related %: 10.19%
  Properties: Light yellow powder
[1]; [11]
  XRD: Same as day 0
[1]
  Stability under high temperature, high humidity and light conditions (conclusion): unstable
[2]
  Electrostatic phenomenon after pulverization: serious electrostatic phenomenon
  Angle of repose: 50.6 °
[3]; [12]
  Solubility: 11200 µg/mL
[3]; [13]
  Solubility: 17 µg/mL
[3]; [14]
  Solubility: 10 µg/mL
[3]; [15]
  Solubility: 8.7 µg/mL
[4]
  Hygroscopic weight gain (%): 2.8%
  Moisture absorbability results: Having moisture

## Cc1cc(Nc2ncc(Cl)c(Nc3ccccc3S(=O)(=O)C(C)C)n2)c2c(c1C1CCNCC1)OCCO2 [Crystal form A, 5-chloro-N^4-(2-(isopropylsulfonyl)phenyl)-N^2-(7-methyl-8-(piperidin-4-yl)-2,3-dihydrobenzo[b][1,4]dioxin-5-yl)pyrimidine-2,4-diamine]
[1]; Day 0
  Properties: Off-white powder
[1]; [5]
  Moisture %: 0.25%
[1]; [6]
  Overall related %: 0.64%
[1]; Day 1, at 105° C., open
  Moisture %: 0.18%
  Overall related %: 0.78%
  Properties: Off-white powder
[1]; [16]
  Moisture %: 0.23%
  Overall related %: 0.69%
  Properties: Off-white powder
[1]; Day 5, at 40° C. RH 75%, open
  Moisture %: 0.23%
  Overall related %: 0.79%
  Properties: Off-white powder
[1]; Day 5, at 60° C., open
  Moisture %: 0.17%
  Overall related %: 0.81%
  Properties: Off-white powder
[1]; Day 5, at 105° C., open
  Moisture %: 0.17%
  Overall related %: 1.6%
  Properties: Off-white powder
[1]; [7]
  Moisture %: 0.17%
  Overall related %: 0.78%
  Properties: Off-white powder
[1]; Day 10, at 40° C. RH 75%, open
  Moisture %: 0.15%
  Overall related %: 0.89%
  Properties: Off-white powder
[1]; Day 10, at 60° C., open
  Moisture %: 0.11%
  Overall related %: 1.0%
  Properties: Off-white powder
[1]; [10]
  Moisture %: 0.23%
  Overall related %: 1.9%
  Properties: Light yellow powder
[1]; [11]
  XRD: Same as day 0
[1]
  Stability under high temperature, high humidity and light conditions (conclusion): relatively stable
[2]
  Electrostatic phenomenon after pulverization: no obvious electrostatic phenomenon
  Angle of repose: 53 °
  Carr's index %: 45%
  ρbulk: 0.35 g/mL
  ρtapped: 0.63 g/mL
[3]; [13]
  Solubility: 2 µg/mL
[3]; [14]
  Solubility: Not detected
[3]; [15]
  Solubility: Not detected
[3]; pH 1, simulated gastric fluid, buffered salt solution pH 1.0, shaken at 25° C. for 24 h
  solubility at 24 h: 16900 µg/mL
[4]
  Hygroscopic weight gain (%): 0.08%
  Moisture absorbability results: no or almost no moisture absorbability

## Cc1cc(Nc2ncc(Cl)c(Nc3ccccc3S(=O)(=O)C(C)C)n2)c2c(c1C1CCNCC1)OCCO2 [Crystal form B, 5-chloro-N^4-(2-(isopropylsulfonyl)phenyl)-N^2-(7-methyl-8-(piperidin-4-yl)-2,3-dihydrobenzo[b][1,4]dioxin-5-yl)pyrimidine-2,4-diamine]
[1]; 1 M, at 40° C. RH 75%, open
  Moisture %: 0.39%
  Overall related %: 0.11%
  Properties: Off-white crystalline
[1]; [5]
  Moisture %: 0.38% and 0.27%
[1]; [6]
  Overall related %: 0.09% and 0.10%
[1]; Day 1, at 105° C., open
  Moisture %: 0.34%
  Overall related %: 0.10%
  Properties: Off-white crystalline
[1]; [16]
  Moisture %: 0.37%
  Overall related %: 0.07%
  Properties: Off-white crystalline
[1]; Day 5, at 60° C., open
  Moisture %: 0.26%
  Overall related %: 0.08%
  Properties: Off-white crystalline
[1]; Day 5, at 105° C., open
  Moisture %: 0.37%
  Overall related %: 0.08%
  Properties: Off-white crystalline
[1]; [7]
  Moisture %: 0.43%
  Overall related %: 0.10%
  Properties: Off-white crystalline
[1]; Day 10, at 40° C. RH 75%, open
  Moisture %: 0.42%
  Overall related %: 0.09%
  Properties: Off-white crystalline
[1]; Day 10, at 60° C., open
  Moisture %: 0.45%
  Overall related %: 0.10%
  Properties: Off-white crystalline
[1]; [8]
  Properties: Off-white crystalline
[1]; [9]
  Moisture %: 0.41%
  Overall related %: 0.10%
[1]; [10]
  Moisture %: 0.21%
  Overall related %: 0.54%
  Properties: Yellow powder
[1]; [11]
  XRD: Same as day 0
[1]
  Stability under high temperature, high humidity and light conditions (conclusion): relatively stable
[2]
  Electrostatic phenomenon after pulverization: no electrostatic phenomenon
  Angle of repose: 45.8 °
  Carr's index %: 30%
  ρbulk: 0.477 g/mL
  ρtapped: 0.683 g/mL
[3]; [12]
  Solubility: 19800 µg/mL
[3]; [13]
  Solubility: 22 µg/mL
[3]; pH 6.8, aqueous buffer, buffered salt solution pH 6.8, shaken at 25° C. for 24 h
  solubility at 24 h: 13 µg/mL
[3]; pH 7.4, aqueous buffer, buffered salt solution pH 7.4, shaken at 25° C. for 24 h
  solubility at 24 h: 10 µg/mL
[4]
  Hygroscopic weight gain (%): 0.11%
  Moisture absorbability results: no or almost no moisture absorbability
